# Test results from EP4644377A1, “LIPID COMPOUND FOR GENE DELIVERY AND LIPID NANOPARTICLE COMPRISING SAME” (NANJING CYBERNAX BIOMEDICAL TECHNOLOGY CO., LTD., priority 2022, dated 2024).
# What was measured:
# [1] = Particle size detection of LNP (Brookhaven NanoBrook Omni, DLS); assay type: physicochemical; conditions: LNPs after coating mRNA (luciferase)
# Procedure: Step 1. Preparation of a lipid solution and a nucleic acid solution: unless otherwise specified, all aqueous solutions involved in examples were prepared from deionized water without nucleases. An ionizable lipid, a phospholipid (disaturated phosphatidylcholine (DSPC) or dioleoylphosphatidylethanolamine (DOPE)), cholesterol and a PEG lipid (DMG-PEG2000) were mixed in a molar ratio of 50/10/38.5/1.5 (containing DSPC, formulation 1) or 36.5/16/46.5/2.5 (containing DOPE, formulation 2) and dissolved into an ethanol solution. Meanwhile, a nucleic acid (a mass ratio of ionizable lipid/nucleic acid was 10/1) was dissolved into a citrate buffer solution of pH=3, so that a final volume ratio of the ethanol solution to the citrate solution was 1/3.
# Step 2. Preparation of LNP by mixing the lipid solution with the nucleic acid solution: the lipid ethanol solution and the nucleic acid aqueous solution that were prepared in Step 1 were respectively put into a sterile syringe and placed in a Precision Nanosystem Ignite instrument, the extrusion flow speeds of the ethanol solution and the water phase solution were respectively set as 3 ml/min and 9 ml/min in instrument program settings. A microfluidic chip was inserted into the instrument and LNP preparation was initiated, and then a solution mixed by the chip was collected.
# Step 2.1. Preparation of an LNP solution coating nucleic acid in a porous plate: a solution of an ionizable lipid, a phospholipid (DSPC or DOPE), cholesterol and a PEG lipid (DMG-PEG2000) in ethanol was added into each well of a 96-well deep plate, so that a molar ratio of four component lipids in each well was 50/10/38.5/1.5 (containing DSPC, formulation 1) or 36.5/16/46.5/2.5 (containing DOPE, formulation 2). Then, a citrate buffer solution (pH=3, the mass of nucleic acid added into each well was 1/10 that of the ionizable lipid in this well) that was three times as ethanol in volume and dissolved with a nucleic acid molecule was quickly added into the well plate through a multi-channel pipette or an automatic liquid dispensing system and rapidly mixed, so as to obtain the LNP solution coating nucleic acid.
# Step 3. Purification of the LNP solution: the LNP solution collected in Step 2 or Step 2.1 was subjected to dialysis-concentration-filtration operations, so as to obtain a final LNP solution coating nucleic acid for subsequent testing.
# The LNP solution coating nucleic acid obtained in Step 3 was diluted so that the final lipid concentration was between 0.01 mg/ml and 0.1 mg/ml. The diluted solution was added into a sample reservoir, and then subjected to particle size detection in a Brookhaven NanoBrook Omni instrument.
# [2] = tested on: C57Bl/6 mice; test: Luciferase mRNA delivery in mice, IVIS chemiluminescence; assay type: in vivo
# Procedure: The animal experiments were reviewed and approved by the Ethics Committee of Zhejiang Medical College and the Ethics Committee of Zhejiang University of Technology. 6- to 8-week-old male C57Bl/6 mice were randomly grouped with 3 mice in each group. The mice in each group received a lipid nanoparticle coating mRNA expressing a luciferase via tail vein injection at a dose of 0.25 mg/kg mouse body weight (calculated by the mass of coated mRNA). […] The mRNA delivery effect of the lipid nanoparticle is quantitatively compared through a total chemiluminiscence quantity (Total Flux p/s) of a mouse whole body within unit time (shown in Table 5).
# Table 13 and Table 14 show whole body chemiluminescent signals when LNPs (formulation 2) composed of the lipids in some examples deliver Flue mRNA in mice. The delivery dose of Flue mRNA was 0.25 mg/kg. 6 h after LNP injection, 150 mg/kg of D-luciferin was intraperitoneally injected into the mice, and then the whole body chemiluminescent signals were collected in the IVIS imaging system after 10 min. […]
# [3] = LNP formulation 2 (SM102: formulation 1), luciferase mRNA 0.25 mg/kg, tail vein, C57Bl/6 mice, whole body signal 6 h after LNP, 10 min after D-luciferin 150 mg/kg i.p.
# [4] = LNPs (formulation 2), Flue mRNA 0.25 mg/kg, tail vein injection, whole body signal 6 h after LNP injection, 10 min after 150 mg/kg D-luciferin i.p.
SMILES,PDI [1],Particle size [1] [nm·days],"Chemiluminescent signal (p/s) [2, 3] [p/s]","Chemiluminescent signal (p/s) [2, 4] [p/s]"
CCCCCCCCCCCC(=O)N(CCCN(CC)CC)C(C(=O)NCCCCCCCC(=O)OC(CCCCCCCC)CCCCCCCC)C(C)(C)C (stereo not shown) [Lipid 237],0.14,234.57 ± 1.84,3.86E+09,
CCCCCCCCCCCC(=O)N(CCCN(C)CCCCO)C(C(=O)NCCCCCCCC(=O)OC(CCCCCCCC)CCCCCCCC)C(C)(C)C (stereo not shown) [Lipid 240],0.19,204.35 ± 3.72,5.76E+08,
CCCCC/C=C\C/C=C\CCCCCCCC(=O)N(CCCN(C)C)C(C(=O)NCCCCCCOC(=O)C(CCCCCC)CCCCCCCC)C(C)(C)C (stereo not shown) [Lipid 285],,,2.91E+10,
CCCCCCCCC(CCCCCC)C(=O)OCCCCCCNC(=O)C(N(CCCN(C)C)C(=O)CCCCCCC/C=C\C[C@H](O)CCCCCC)C(C)(C)C (stereo partly shown) [Lipid 286],,,4.78E+10,
CC/C=C\C/C=C\C/C=C\C/C=C\C/C=C\CCCC(=O)N(CCCN(C)C)C(C(=O)NCCCCCCOC(=O)C(CCCCCC)CCCCCCCC)C(C)(C)C (stereo not shown) [Lipid 287],,,1.23E+10,
CCCCCCCCC(CC)OC(=O)CCCCCCCNC(=O)C(N(CCCN(C)C)C(=O)CCCCCCC(=O)OC(CC)CCCCCCCC)C(C)(C)C (stereo not shown) [Lipid 401],0.19,93.6 ± 0.84,,5.92E+10
CCCCCCCCC(CC)OC(=O)CCCCCCC(=O)N(CCCN(C)C)C(C(=O)NCCCCCCCC(=O)OC(CCCCCCCC)CCCCCCCC)C(C)(C)C (stereo not shown) [Lipid 402],0.25,84.3 ± 3.42,,4.20E+10
CCCCCCCCC(CC)OC(=O)CCCCCCC(=O)N(CCCN(C)C)C(C(=O)NCCCCCCOC(=O)C(CCCCCC)CCCCCCCC)C(C)(C)C (stereo not shown) [Lipid 406],0.17,95.9 ± 0.75,,1.04E+11
CCCCCCCCC(CC)OC(=O)CCCCCCCNC(=O)C(N(CCCN(C)C)C(=O)CCCCCCCCCC(=O)OC(CCCCCC)CCCCCC)C(C)(C)C (stereo not shown) [Lipid 407],0.18,97.4 ± 0.64,,8.00E+10
CCCCCCCCC(CCCCCCCC)OC(=O)CCCCCCCNC(=O)C(N(CCCN(C)C)C(=O)CCCCCCCCCC(=O)OC(CCCCCC)CCCCCC)C(C)(C)C (stereo not shown) [Lipid 408],0.18,101.7 ± 5.09,,1.03E+11
CCCCCCCC(C)COC(=O)CCCCCCCNC(=O)C(N(CCCN(C)C)C(=O)CCCCCCCCCC(=O)OC(CCCCCC)CCCCCC)C(C)(C)C (stereo not shown) [Lipid 409],0.25,95 ± 0.75,,3.08E+10
CCCCC/C=C\C/C=C\CCCCCCCC(=O)N(CCCN(C)C)C(C(=O)NCCCCCCCC(=O)OC(CCCCCCCC)CCCCCCCC)C1CCC1 (stereo not shown) [Lipid 937],,,,1.01E+08
CCCCC/C=C\C/C=C\CCCCCCCC(=O)N(CCCN(C)C)C(CC)C(=O)NCCCCCCCC(=O)OC(CCCCCCCC)CCCCCCCC (stereo not shown) [Lipid 950],,,,3.41E+07
CCCCCCCCCCCCCC(=O)N(CCCN(C)C)C(C)C(=O)NCCCCCCOC(=O)C(CCCCCC)CCCCCCCC (stereo not shown) [Lipid 1039],,,,3.31E+06
CCCCCCCCCCCCCC(=O)N(CCCN(C)C)C(CC)C(=O)NCCCCCCOC(=O)C(CCCCCC)CCCCCCCC (stereo not shown) [Lipid 1041],,,,3.31E+06
